Measurements reported in PMC10886162, “Synthesis of Novel Artemisinin, Ciprofloxacin, and Norfloxacin Hybrids with Potent Antiplasmodial Activity” (Antibiotics, 2024).
Several values for one entry are separate records, joined by “and”; a condition that tells them apart may be missing. Identical values can stand only once.

Key:
[1] = test system: CQ-resistant P. falciparum FcB1 strain; assay: In vitro growth inhibition of P. falciparum FcB1 ([3H]-hypoxanthine incorporation); type: cell-based, Plasmodium falciparum; conditions: for IC50: Plasmodium falciparum; for Selectivity Index (IC50 AB943/IC50 FcB1): ratio of cytotoxicity IC50 to antiplasmodial IC50 (FcB1)
Method: (§1) The chloroquine-resistant FcB1/Colombia and Dd2/Indochina strains of Plasmodium falciparum were obtained from the Protist Collection of the National Museum of Natural History, Paris, France (n° MNHN-CEU-2016-224-PfFCB1 and MNHN-CEU-2016-222-PfDD2). The parasites were maintained in vitro on human erythrocytes in RPMI 1640 medium supplemented by 8% (v/v) heat-inactivated human serum, at 37 °C, under an atmosphere of 5% CO2. The human red blood cells and serum were provided by the Établissement Français du Sang under the C-CPSL-UNT approval no. 13/EFS/126. The in vitro drug susceptibility assays were measured by [^3H]-hypoxanthine incorporation, as previously described. The drug stock solutions were prepared in DMSO. Briefly, the assays were performed in 96-well plates. The compounds were diluted in the culture medium (100 μL per well). The parasite cultures (100 μL, 2% parasitaemia, and 1% final hematocrit) were then added to each well and incubated for 24 h at 37 °C prior to the addition of 0.5 μCi of [^3H]- hypoxanthine (GE Healthcare, Paris, France, 1 to 5 Ci·mmol/mL) per well. After a further incubation of 24 h, the plates were frozen and thawed. The cell lysates were then collected onto fiberglass filters and counted in a liquid scintillation spectrometer. The growth inhibition for each drug concentration was determined through a comparison of the radioactivity incorporated in the treated culture with that in the control culture maintained on the same plate. The drugs were first evaluated for a range of fixed concentrations of 50, 5, 0.5, 0.05, and 0.005 μg/mL. […] The IC50 value was obtained from the drug concentration–response curve, and the results were expressed in μM or nM as the mean values ± standard deviations determined from several independent experiments. Artesunate (46) was used as an antimalarial drug control.

[2] = test system: human primary fibroblasts AB943; assay: Cytotoxicity upon human primary fibroblasts AB943 (resazurin); type: cell-based; conditions: Fibroblast, 72 h, mean +/− SD of at least three independent experiments
Method: A cellular cytotoxicity evaluation was performed upon human primary fibroblasts AB943, as previously described. The assays were realized in 96-well plates in DMEM + Glutamax without phenol red medium containing 25 mM HEPES, a pH of 7.3, and 10% of fetal calf serum under a 5% CO2 atmosphere, at 37 °C. After trypsin treatment, the AB943 cells were seeded at 2000 cells per well in 100 μL. After 24 h of incubation, drugs diluted in the culture medium were added (100 μL per well). The drug stock solutions were prepared in dimethyl sulfoxide (DMSO). The final DMSO concentration in the cultures remained below 1%. Control cultures were constituted of cultures treated with DMSO instead of the drug. The cytotoxicity assay was based on the conversion of a redo-sensitive dye (resazurin) to a fluorescent product via viable cells. After 72 h of incubation, the resazurin solution was added in each well at a final concentration of 45 μM. The fluorescence was measured at 530 nm excitation and 590 nm emission wavelengths after 4 h of incubation. The percentage of the inhibition of cell growth was calculated by comparing the fluorescence of cells maintained in the presence of the drug to that in the absence of the drug. The concentration causing 50% growth inhibition (IC50) was obtained from the drug concentration–response curve, and the results were expressed as the mean values ± standard deviations determined from several experiments.

[3] = test system: CQ-resistant Dd2 strain of P. falciparum; assay: In vitro growth inhibition of P. falciparum Dd2 ([3H]-hypoxanthine incorporation); type: cell-based, Plasmodium falciparum; conditions: for IC50: Plasmodium falciparum, CQ-resistant Dd2, mean +/− SD of at least three independent experiments; for Selectivity Index (IC50 AB943/IC50 Dd2): ratio of cytotoxicity IC50 to antiplasmodial IC50 (Dd2)
Method: as §1

[4] = FCB1, CQ-resistant FcB1, mean +/− standard deviation of independent experiments (at least four in Tables 1-2, at least three in Tables 3-4)
[5] = FCB1, Table 5, single compound (hybrid or AS alone)

| melting point | Compound | IC50 [1, 4] | Selectivity Index (IC50 AB943/IC50 FcB1) [1] | IC50 [2] | IC50 [3] | Selectivity Index (IC50 AB943/IC50 Dd2) [3] | IC50 [1, 5] |
| --- | --- | --- | --- | --- | --- | --- | --- |
| 135.1 to 136 °C | CCOC(=O)c1cn(CC)c2cc(N3CCN(C(=O)C[C@H]4O[C@@H]5O[C@@]6(C)CCC7[C@H](C)CCC([C@H]4C)[C@]75OO6)CC3)c(F)cc2c1=O (stereo partly drawn) [Compound 18, Ethyl 1-ethyl-6-fluoro-4-oxo-7-(4-(2-((3R,6R,9R,10R,12R,12aR)-3,6,9-trimethyldecahydro-12H-3,12-epoxy[1,2]dioxepino[4,3-i]isochromen-10-yl)acetyl)piperazin-1-yl)-1,4-dihydroquinoline-3-carboxylate] | 25.5 nM | 2129 | 54.3 µM | 58.7 nM | 925 | – |
| 151 to 152 °C | CCCCOC(=O)c1cn(CC)c2cc(N3CCN(C(=O)C[C@H]4O[C@@H]5O[C@@]6(C)CCC7[C@H](C)CCC([C@H]4C)[C@]75OO6)CC3)c(F)cc2c1=O (stereo partly drawn) [Compound 19, Butyl 1-ethyl-6-fluoro-4-oxo-7-(4-(2-((3R,6R,9R,10R,12R,12aR)-3,6,9-trimethyldecahydro-12H-3,12-epoxy[1,2]dioxepino[4,3-i]isochromen-10-yl)acetyl)piperazin-1-yl)-1,4-dihydroquinoline-3-carboxylate] | 13.9 nM | 1294 | 18 µM | 38.4 nM | 469 | – |
| 103.4 to 104.5 °C | C[C@@H]1CCC2[C@@H](C)[C@H](OC(=O)CCC(=O)N3CCN(c4cc5c(cc4F)c(=O)c(C(=O)O)cn5C4CC4)CC3)O[C@@H]3O[C@@]4(C)CCC1[C@@]23OO4 (stereo partly drawn) [Compound 20, 1-cyclopropyl-6-fluoro-4-oxo-7-(4-(4-oxo-4-(((3R,6R,9R,10S,12R,12aR)-3,6,9-trimethyldecahydro-12H-3,12-epoxy[1,2]dioxepino[4,3-i]isochromen-10-yl)oxy)butanoyl)piperazin-1-yl)-1,4-dihydroquinoline-3-carboxylic acid] | 4 nM | 10,318 | 41.3 µM | 8 nM | 5146 | – |
| 128.6 to 129.7 °C | CCCCOC(=O)c1cn(C2CC2)c2cc(N3CCN(C(=O)CCC(=O)O[C@@H]4O[C@@H]5O[C@@]6(C)CCC7[C@H](C)CCC([C@H]4C)[C@]75OO6)CC3)c(F)cc2c1=O (stereo partly drawn) [Compound 22, Butyl 1-cyclopropyl-6-fluoro-4-oxo-7-(4-(4-oxo-4-(((3R,6R,9R,10S,12R,12aR)-3,6,9-trimethyldecahydro-12H-3,12-epoxy[1,2]dioxepino[4,3-i]isochromen-10-yl)oxy)butanoyl)piperazin-1-yl)-1,4-dihydroquinoline-3-carboxylate] | 3.5 nM | 11,303 | 38.9 µM | 13 nM | 3002 | 3.5 nM |
| 155 to 156 °C | CCCCOC(=O)c1cn(CC)c2cc(N3CCN(C(=O)CCC(=O)O[C@@H]4O[C@@H]5O[C@@]6(C)CCC7[C@H](C)CCC([C@H]4C)[C@]75OO6)CC3)c(F)cc2c1=O (stereo partly drawn) [Compound 24, Butyl 1-ethyl-6-fluoro-4-oxo-7-(4-(4-oxo-4-(((3R,6R,9R,10S,12R,12aR)-3,6,9-trimethyldecahydro-12H-3,12-epoxy[1,2]dioxepino[4,3-i]isochromen-10-yl)oxy)butanoyl)piperazin-1-yl)-1,4-dihydroquinoline-3-carboxylate] | 1.9 nM | 16,000 and 16,047 | 30.3 µM | 9.2 nM | 3311 | 1.9 nM |
| 160.2 to 161.3 °C | C[C@@H]1CCC2[C@@H](C)[C@@H](CC(=O)N3CCN(c4cc5c(cc4F)c(=O)c(C(=O)N4CCN(c6ccnc7cc(Cl)ccc67)CC4)cn5C4CC4)CC3)O[C@@H]3O[C@@]4(C)CCC1[C@@]23OO4 (stereo partly drawn) [Compound 25, 3-(4-(7-chloroquinolin-4-yl)piperazine-1-carbonyl)-1-cyclopropyl-6-fluoro-7-(4-(2-((3R,6R,9R,10R,12R,12aR)-3,6,9-trimethyldecahydro-12H-3,12-epoxy[1,2]dioxepino[4,3-i]isochromen-10-yl)acetyl)piperazin-1-yl)quinolin-4(1H)-one] | 7.5 nM | 521 | 3.9 µM | 17.7 nM | 220 | – |

Continued, compound first:

| Compound | melting point | IC50 [1, 4] | Selectivity Index (IC50 AB943/IC50 FcB1) [1] | IC50 [2] | IC50 [3] | Selectivity Index (IC50 AB943/IC50 Dd2) [3] | IC50 [1, 5] |
| --- | --- | --- | --- | --- | --- | --- | --- |
| CCCCOC(=O)c1cn(C2CC2)c2cc(N3CCN(C(=O)C[C@H]4O[C@@H]5O[C@@]6(C)CCC7[C@H](C)CCC([C@H]4C)[C@]75OO6)CC3)c(F)cc2c1=O (stereo partly drawn) [Compound 16, Butyl 1-cyclopropyl-6-fluoro-4-oxo-7-(4-(2-((3R,6R,9R,10R,12R,12aR)-3,6,9-trimethyldecahydro-12H-3,12-epoxy[1,2]dioxepino[4,3-i]isochromen-10-yl)acetyl)piperazin-1-yl)-1,4-dihydroquinoline-3-carboxylate] | 105 to 106 °C | 7.5 nM | 2000 | 14.9 µM | 24 nM | 622 | – |
| CCOC(=O)c1cn(C2CC2)c2cc(N3CCN(C(=O)CCC(=O)O[C@@H]4O[C@@H]5O[C@@]6(C)CCC7[C@H](C)CCC([C@H]4C)[C@]75OO6)CC3)c(F)cc2c1=O (stereo partly drawn) [Compound 21, Ethyl 1-cyclopropyl-6-fluoro-4-oxo-7-(4-(4-oxo-4-(((3R,6R,9R,10S,12R,12aR)-3,6,9-trimethyldecahydro-12H-3,12-epoxy[1,2]dioxepino[4,3-i]isochromen-10-yl)oxy)butanoyl)piperazin-1-yl)-1,4-dihydroquinoline-3-carboxylate] | 115.4 to 116.2 °C | 5.4 nM | 9826 | 52.8 µM | 16 nM | 3302 | – |
| CCOC(=O)c1cn(CC)c2cc(N3CCN(C(=O)CCC(=O)O[C@@H]4O[C@@H]5O[C@@]6(C)CCC7[C@H](C)CCC([C@H]4C)[C@]75OO6)CC3)c(F)cc2c1=O (stereo partly drawn) [Compound 23, Ethyl 1-ethyl-6-fluoro-4-oxo-7-(4-(4-oxo-4-(((3R,6R,9R,10S,12R,12aR)-3,6,9-trimethyldecahydro-12H-3,12-epoxy[1,2]dioxepino[4,3-i]isochromen-10-yl)oxy)butanoyl)piperazin-1-yl)-1,4-dihydroquinoline-3-carboxylate] | 140 to 141.1 °C | 1.5 nM | 28,000 and 28,382 | 43.7 µM | 3.5 nM | 12,488 | 1.5 nM |
| C[C@@H]1CCC2[C@@H](C)[C@@H](CCC(=O)N3CCN(c4cc5c(cc4F)c(=O)c(C(=O)N4CCN(c6ccnc7cc(Cl)ccc67)CC4)cn5C4CC4)CC3)O[C@@H]3O[C@@]4(C)CCC1[C@@]23OO4 (stereo partly drawn) [Compound 26, 3-(4-(7-chloroquinolin-4-yl)piperazine-1-carbonyl)-1-cyclopropyl-6-fluoro-7-(4-(3-((3R,6R,9R,10R,12R,12aR)-3,6,9-trimethyldecahydro-12H-3,12-epoxy[1,2]dioxepino[4,3-i]isochromen-10-yl)propanoyl)piperazin-1-yl)quinolin-4(1H)-one] | 115 to 116 °C | 13.7 nM | 2668 | 36.5 µM | 41.5 nM | 880 | – |
